Results taken from patent US7071168B2, “Anti-cancer compounds and methods related thereto” (The Regents of the University of Colorado, priority 1998, dated 2006).

How the values were obtained:
[1] = test system: bradykinin response of isolated guinea pig ileum; assay: Anti-bradykinin activity on isolated guinea pig ileum
Outline: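 Terminal ileum segments (25 mm) from overnight-fasted male Hartley guinea pigs, in Krebs' solution gassed with 95% O2/5% CO2 under 1 g tension, equilibrated 1 h. Bradykinin concentration-effect curves constructed without and with test compounds.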

SCLC strain SHP-77 = assay: Colorimetric tetrazolium (MTT) assay for cell survival, SCLC strain SHP-77; assay type: cell-based, human
Outline: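 MTT assay: cells seeded overnight, treated in triplicate across a concentration range for 4 days at 37 °C, 5% CO2. On day 5, MTT was added for 4 h; formazan was dissolved in acidified isopropanol and absorbance read.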

[2] = Table 1, higher numbers indicate higher potency
[3] = isolated guinea pig ileum, pD2 of bradykinin is 7.4, higher numbers indicate higher potency

Molecule	GPI: pA2 for bradykinin antagonist activity on isolated guinea pig ileum [1, 2]	MTT: ED50 for killing of SCLC strain SHP-77 in vitro (SCLC strain SHP-77; Table 1, SHP-77, MTT, 4 days)	GPI: pA2 for bradykinin antagonist activity on isolated guinea pig ileum [1, 3]	MTT: ED50 for killing of SCLC strain SHP-77 in vitro (SCLC strain SHP-77; SCLC strain SHP-77 in vitro)	further results
DDD-(DArg-Arg-Eac-Ser-DIgl-Oic-Arg)2 [M854]	5.9	7.3 µM			
TDIM-(DArg-Arg-Pro-Hyp-Gly-Thi-Ser-DIgl-Oic-Arg)2 [B10104-2]	8.0	4 µM			
CC1CN(C(=O)[C@H](Cc2ccc3ccccc3c2)NC(=N)CCCCCCCCCCCCC(=N)N[C@@H](Cc2ccc3ccccc3c2)C(=O)N2CC(C)OC(C)C2)CC(C)O1 (some centres unmarked) [M304]			5.9	4.2 µM	
c[DArg-Arg-Add-Ser-DF5F-Oic-Arg] [M874]					GPI: pA2 for bradykinin antagonist activity on isolated guinea pig ileum ([1]; Table 3, cyclic peptides): 5.0; MTT: ED50 for killing of SCLC strain SHP-77 in vitro (SCLC strain SHP-77; Table 3, cyclic peptides): 11 µM
CC1(C)CC(NC(=O)C(Cc2ccc(NS(C)(=O)=O)cc2)NC(=O)C=Cc2c(F)c(F)c(F)c(F)c2F)CC(C)(C)N1 (centres unmarked) [M648]			5.0	Inact	
F5c-DArg-Arg-Pro-Hyp-Gly-Igl-Ser-DIgl-Oic-Arg [B10238]	8.1	150 µM			
O=C(NC1CN2CCC1CC2)C(Cc1ccc2ccccc2c1)NC(=NC1CCCCC1)NC1CCCCC1 (centres unmarked) [M18]			6.6	30 µM	
DDD-(DArg-Arg-Eac-Ser-DTic-Oic-Arg)2 [M794]	Inact	21 µM			
D-Arg-Arg-Aud-PaF(F5c)-Arg [M726]	5.6	Inact			
CC1=C(CC(=O)NC2CC(C)(C)NC(C)(C)C2)c2cc(F)ccc2C1=Cc1ccc([S+](C)[O-])cc1 (centres unmarked) [M654]			4.5	Inact	
DDD-(DArg-Arg-Aud-DIgl-PFF-Arg)2 [M842]	Inact	1.4 µM			
F5c-NMF-Arg [M686]	5.6	29 µM			
CN(C(=O)C(Cc1ccc(OCc2c(Cl)cccc2Cl)cc1)NC(=O)CCc1ccccc1)C1CC(C)(C)N(C)C(C)(C)C1 (centres unmarked) [M652]			5.7	7.5 µM	
BApG-DArg-Arg-Pro-Hyp-Gly-Igl-Ser-DIgl-Oic-Arg [B10084]	8.1	>20 µM			
CN(C(=O)C(Cc1ccc(OCc2c(Cl)cccc2Cl)cc1)NC(=O)C=Cc1ccccc1)C1CC(C)(C)NC(C)(C)C1 (centres unmarked) [M628]			5.2	1.6 µM	
DDD-(DArg-Arg-Add-Ser-DIgl-PFF-Arg)2 [M864]	Inact	1.8 µM			
CC1(C)CC(NC(=O)Cc2ccc(NC(=NC3CCCCC3)NC3CCCCC3)cc2)CC(C)(C)N1 [M266]			4.8	42 µM	
c[DArg-Arg-Aud-DIgl-PFF-Arg] [M850]					GPI: pA2 for bradykinin antagonist activity on isolated guinea pig ileum ([1]; Table 3, cyclic peptides): 5.1; MTT: ED50 for killing of SCLC strain SHP-77 in vitro (SCLC strain SHP-77; Table 3, cyclic peptides): 1.4 µM
CN(C)c1ccc(CNC(=O)C(Cc2ccc(F)cc2)NC(=O)C=Cc2c(F)c(F)c(F)c(F)c2F)cc1 (centres unmarked) [M832]			4.6	47 µM	
Ava-Igl-Ser-DF5F-Oic-Arg [M806]	5.6	Inact			
CN(C(=O)C(Cc1cc(I)c(OCc2c(Cl)cccc2Cl)c(I)c1)NC(=O)C=Cc1c(F)c(F)c(F)c(F)c1F)C1CC(C)(C)NC(C)(C)C1 (centres unmarked) [M664]			5.0	1.2 µM	
CC1(C)CC(NC(=O)[C@H](Cc2ccc3ccccc3c2)NC(=O)C(C2CCCCC2)C2CCCCC2)CC(C)(C)N1 [M276]			5.3	4.6 µM	
CC1(C)CC(NC(=O)C(Cc2ccc3ccccc3c2)NC(=O)C=Cc2ccc(C(F)(F)F)cc2)CC(C)(C)N1 (centres unmarked) [M312]			5.5	3.2 µM	
F5c-PFF-Arg [M718]	5.1	9 µM			
(DArg-Arg-Pro-Hyp)2Dpr-Igl-Ser-DIgl-Oic-Arg [B10098]	5.3	20 µM			
